Assay results from patent publication US4672068A, “Antihypertensive 1,4-dihydropyridines having a conjugated ester” (Fujirebio Kabushiki Kaisha, priority 1984, dated 1987).

Test system: Male spontaneously hypertensive rats (SHR), arterial blood pressure
Experiment: Depressor response after intravenous administration (30 μg/kg), Table 1
Format: in vivo, rat
Settings: for Duration: '90<' means greater than 90
Experimental: Male spontaneously hypertensive rats (SHR) which had mean arterial blood pressures higher than 140 mmHg were used for the experiments. Arterial blood pressure was measured through the catherized artery with a pressure transducer (MPU-0.5, manufactured by Nihon Kohden Kabushiki Kaisha). The catheter was inserted into the abdominal aorta via the median coccygcal artery of SHR under light ether anesthesia. The recordings were made on a rectigraph (manufactured by Sanei Sokki Kabushiki Kaisha). The 1,4-dihydropyridine derivatives prepared in the foregoing examples were administered with catheter which was inserted previously into the caudal vein or duodenum at least two hours after the operation. SHR were restrained with wire mesh cage immediately after the operation. Each derivative to be tested was dissolved in 1.5% PVP/ethanol, and then diluted with 0.9% saline or intravenous administration (30 μg/kg), or suspended in 5% gum arabic solution of intraduodenal administration (1 mg/kg).

`COCCOC(=O)C1=C(C)NC(C)=C(C(=O)OCC=CC=Cc2ccccc2)C1c1cccc([N+](=O)[O-])c1` (centres unmarked) [Example 62, 2-methoxyethyl 5-phenyl-2,4-pentadienyl 4-(3-nitrophenyl)-2,6-dimethyl-1,4-dihydropyridine-3,5-dicarboxylate] was tested, and the “The time to reach the lowest BP” value was 2.0 min, the “ΔBP (Maximum depressor response)” value was 60 mmHg and the Duration was > 90 min.

With `CC=CC=CCOC(=O)C1=C(C)NC(C)=C(C(=O)OCC)C1c1cccc([N+](=O)[O-])c1` (centres unmarked) [Example 67, Ethyl 2,4-hexadienyl 4-(3-nitrophenyl)-2,6-dimethyl-1,4-dihydropyridine-3,5-dicarboxylate] the “The time to reach the lowest BP” value was 1.0 min, the “halflife (number in parentheses in Duration column)” value was 37 min and the “ΔBP (Maximum depressor response)” value was 72 mmHg. For the same compound, the Duration was > 90 min.

`COC(=O)C1=C(C)NC(C)=C(C(=O)OC/C=C/C=C\c2ccccc2)C1c1cccc([N+](=O)[O-])c1` (centres unmarked) [Example 58, Methyl (2E,4Z)-5-phenyl-2,4-pentadienyl 4-(3-nitrophenyl)-2,6-dimethyl-1,4-dihydropyridine-3,5-dicarboxylate] was tested, and the “The time to reach the lowest BP” value was 1.9 min and the “ΔBP (Maximum depressor response)” value was 64 mmHg.

With `COC(=O)C1=C(C)NC(C)=C(C(=O)OC(C=Cc2ccccc2)C(C)(C)C)C1c1cccc([N+](=O)[O-])c1` (centres unmarked) [Example 6, 1-tert-butyl-3-phenyl-2-propenyl methyl 4-(3-nitrophenyl)-2,6-dimethyl-1,4-dihydropyridine-3,5-dicarboxylate] the “The time to reach the lowest BP” value was 70 min, the “ΔBP (Maximum depressor response)” value was 55 mmHg and the Duration was > 90 min.

For `CCCC(C=Cc1ccccc1)OC(=O)C1=C(C)NC(C)=C(C(=O)OC)C1c1cccc([N+](=O)[O-])c1` (centres unmarked) [Example 10, 1-propyl-3-phenyl-2-propenyl methyl 4-(3-nitrophenyl)-2,6-dimethyl-1,4-dihydropyridine-3,5-dicarboxylate], the “The time to reach the lowest BP” value was 12.5 min, the “ΔBP (Maximum depressor response)” value was 72 mmHg and the Duration was > 90 min.

For `COC(=O)C1=C(C)NC(C)=C(C(=O)OCC=Cc2ccccc2)C1c1ccccc1F` (centres unmarked) [Example 40, Cinnamyl methyl 4-(2-fluorophenyl)-2,6-dimethyl-1,4-dihydropyridine-3,5-dicarboxylate], the “The time to reach the lowest BP” value was 1.4 min, the “ΔBP (Maximum depressor response)” value was 60 mmHg and the Duration was > 90 min.

With `C=C(C)COC(=O)C1=C(C)NC(C)=C(C(=O)OCC=CC=CC)C1c1cccc([N+](=O)[O-])c1` (centres unmarked) [Example 77, 2-methyl-2-propen-1-yl 2,4-hexadienyl 4-(3-nitrophenyl)-2,6-dimethyl-1,4-dihydropyridine-3,5-dicarboxylate] the “The time to reach the lowest BP” value was 2 min and the “ΔBP (Maximum depressor response)” value was 60 mmHg.

`CC=CC=CCOC(=O)C1=C(C)NC(C)=C(C(=O)OC(C)C)C1c1cccc([N+](=O)[O-])c1` (centres unmarked) [Example 68, Isopropyl 2,4-hexadienyl 4-(3-nitrophenyl)-2,6-dimethyl-1,4-dihydropyridine-3,5-dicarboxylate] was tested, and the “The time to reach the lowest BP” value was 1.4 min, the “halflife (number in parentheses in Duration column)” value was 13 min and the “ΔBP (Maximum depressor response)” value was 60 mmHg. The Duration was > 90 min.

In the case of `CC=CC=CCOC(=O)C1=C(C)NC(C)=C(C(=O)OCCC)C1c1cccc([N+](=O)[O-])c1` (centres unmarked) [Example 84, n-propyl 2,4-hexadienyl 4-(3-nitrophenyl)-2,6-dimethyl-1,4-dihydropyridine-3,5-dicarboxylate], the “The time to reach the lowest BP” value is reported as 2 min and the “ΔBP (Maximum depressor response)” value is reported as 35 mmHg.

`CCOC(=O)C1=C(C)NC(C)=C(C(=O)OCC=CC=Cc2ccccc2)C1c1cccc([N+](=O)[O-])c1` (centres unmarked) [Example 60, ethyl 5-phenyl-2,4-pentadienyl 4-(3-nitrophenyl)-2,6-dimethyl-1,4-dihydropyridine-3,5-dicarboxylate] was tested, and the “The time to reach the lowest BP” value was 4.0 min, the “ΔBP (Maximum depressor response)” value was 60 mmHg and the Duration was > 90 min.

With `COC(=O)C1=C(C)NC(C)=C(C(=O)OCC=Cc2ccccc2)C1c1cccs1` (centres unmarked) [Example 65, Cinnamyl methyl 4-(2-thienyl)-2,6-dimethyl-1,4-dihydropyridine-3,5-dicarboxylate] the “The time to reach the lowest BP” value was 0.3 min and the “ΔBP (Maximum depressor response)” value was 18 mmHg.

For `CC=CC=CCOC(=O)C1=C(C)NC(C)=C(C(=O)OCCOC)C1c1cccc([N+](=O)[O-])c1` (centres unmarked) [Example 69, 2-methoxyethyl 2,4-hexadienyl 4-(3-nitrophenyl)-2,6-dimethyl-1,4-dihydropyridine-3,5-dicarboxylate], the “The time to reach the lowest BP” value was 1.0 min, the “ΔBP (Maximum depressor response)” value was 60 mmHg and the Duration was > 90 min.

In the case of `CC=CC=CCOC(=O)C1=C(C)NC(C)=C(C(=O)OC2CCCCC2)C1c1cccc([N+](=O)[O-])c1` (centres unmarked) [Example 70, Cyclohexyl 2,4-hexadienyl 4-(3-nitrophenyl)-2,6-dimethyl-1,4-dihydropyridine-3,5-dicarboxylate], the “The time to reach the lowest BP” value is reported as 7.0 min, the “ΔBP (Maximum depressor response)” value is reported as 65 mmHg and the Duration is reported as > 90 min.

With `COC(=O)C1=C(C)NC(C)=C(C(=O)OCC=Cc2ccc3ccccc3c2)C1c1cccc([N+](=O)[O-])c1` (centres unmarked) [Example 29, 3-(2-naphthyl)-2-propenyl methyl 4-(3-nitrophenyl)-2,6-dimethyl-1,4-dihydropyridine-3,5-dicarboxylate] the “The time to reach the lowest BP” value was 5.0 min and the “ΔBP (Maximum depressor response)” value was 25 mmHg.

`CC=CC=CCOC(=O)C1=C(C)NC(C)=C(C(=O)OCCCC)C1c1cccc([N+](=O)[O-])c1` (centres unmarked) [Example 83, n-butyl 2,4-hexadienyl 4-(3-nitrophenyl)-2,6-dimethyl-1,4-dihydropyridine-3,5-dicarboxylate] was tested, and the “The time to reach the lowest BP” value was 2.6 min and the “ΔBP (Maximum depressor response)” value was 45 mmHg.

`COC(=O)C1=C(C)NC(C)=C(C(=O)OCC(C)=Cc2ccccc2)C1c1cccc([N+](=O)[O-])c1` (centres unmarked) [Example 22, 2-methyl-3-phenyl-2-propenyl methyl 4-(3-nitrophenyl)-2,6-dimethyl-1,4-dihydropyridine-3,5-dicarboxylate] was tested, and the “The time to reach the lowest BP” value was 1.8 min, the “ΔBP (Maximum depressor response)” value was 50 mmHg and the Duration was 120 min.

For `CCC(C=Cc1ccccc1)OC(=O)C1=C(C)NC(C)=C(C(=O)OC)C1c1cccc([N+](=O)[O-])c1` (centres unmarked) [Example 25, 1-ethyl-3-phenyl-2-propenyl methyl 4-(3-nitrophenyl)-2,6-dimethyl-1,4-dihydropyridine-3,5-dicarboxylate], the “The time to reach the lowest BP” value was 10 min, the “ΔBP (Maximum depressor response)” value was 71 mmHg and the Duration was > 240 min.

In the case of `COCCOC(=O)C1=C(C)NC(C)=C(C(=O)OCC=Cc2ccccc2)C1c1cccc([N+](=O)[O-])c1` (centres unmarked) [Example 13, Cinnamyl 2-methoxyethyl 4-(3-nitrophenyl)-2,6-dimethyl-1,4-dihydropyridine-3,5-dicarboxylate], the “The time to reach the lowest BP” value is reported as 2.0 min, the “ΔBP (Maximum depressor response)” value is reported as 35 mmHg and the Duration is reported as > 270 min.

In the case of `CC1=C(C(=O)OCC#Cc2ccccc2)C(c2cccc([N+](=O)[O-])c2)C(C(=O)OCC=Cc2ccccc2)=C(C)N1` (centres unmarked) [Example 46, Cinnamyl phenylpropargyl 4-(3-nitrophenyl)-2,6-dimethyl-1,4-dihydropyridine-3,5-dicarboxylate], the “The time to reach the lowest BP” value is reported as 20 min and the “ΔBP (Maximum depressor response)” value is reported as 20 mmHg.

In the case of `COC(=O)C1=C(C)NC(C)=C(C(=O)OCCC=Cc2ccc(C)cc2)C1c1cccc([N+](=O)[O-])c1` (centres unmarked) [Example 20, 4-(p-methylphenyl)-3-butenyl methyl 4-(3-nitrophenyl)-2,6-dimethyl-1,4-dihydropyridine-3,5-dicarboxylate], the “The time to reach the lowest BP” value is reported as 1.8 min, the “ΔBP (Maximum depressor response)” value is reported as 52.5 mmHg and the Duration is reported as 90 min.

For `CC=CC=CCOC(=O)C1=C(C)NC(C)=C(C(=O)OCC2CC2)C1c1cccc([N+](=O)[O-])c1` (centres unmarked) [Example 85, Cyclopropylmethyl 2,4-hexadienyl 4-(3-nitrophenyl)-2,6-dimethyl-1,4-dihydropyridine-3,5-dicarboxylate], the “The time to reach the lowest BP” value was 2.6 min and the “ΔBP (Maximum depressor response)” value was 35 mmHg.

In the case of `CC=CC=CCOC(=O)C1=C(C)NC(C)=C(C(=O)OCC=CC)C1c1cccc([N+](=O)[O-])c1` (centres unmarked) [Example 78, 2-butenyl 2,4-hexadienyl 4-(3-nitrophenyl)-2,6-dimethyl-1,4-dihydropyridine-3,5-dicarboxylate], the “The time to reach the lowest BP” value is reported as 2.4 min and the “ΔBP (Maximum depressor response)” value is reported as 23 mmHg.

With `CC=CC=CCOC(=O)C1=C(C)NC(C)=C(C(=O)OC)C1c1cccc(C(F)(F)F)c1` (centres unmarked) [Example 72, methyl 2,4-hexadienyl 4-(3-trifluoromethylphenyl)-2,6-dimethyl-1,4-dihydropyridine-3,5-dicarboxylate] the “The time to reach the lowest BP” value was 1.5 min, the “ΔBP (Maximum depressor response)” value was 63 mmHg and the Duration was > 120 min.

`COC(=O)C1=C(C)NC(C)=C(C(=O)OCC=CC=Cc2ccco2)C1c1cccc([N+](=O)[O-])c1` (centres unmarked) [Example 52, Methyl 5-(2-furyl)-2,4-pentadienyl 4-(3-nitrophenyl)-2,6-dimethyl-1,4-dihydropyridine-3,5-dicarboxylate] was tested, and the “The time to reach the lowest BP” value was 2.0 min, the “ΔBP (Maximum depressor response)” value was 55 mmHg and the Duration was > 90 min.

`COC(=O)C1=C(C)NC(C)=C(C(=O)OCC=CC=Cc2cccs2)C1c1cccc([N+](=O)[O-])c1` (centres unmarked) [Example 51, Methyl 5-(2-thienyl)-2,4-pentadienyl 4-(3-nitrophenyl)-2,6-dimethyl-1,4-dihydropyridine-3,5-dicarboxylate] was tested, and the “The time to reach the lowest BP” value was 2.0 min, the “ΔBP (Maximum depressor response)” value was 40 mmHg and the Duration was > 90 min.
